Results taken from patent US6841385B2, “Transcription factor E2F DNA-binding domain inhibitor peptides and their use” (Topotarget UK Limited, priority 1999, dated 2005).
Bridge positions count the residues as written; N and C are the ends. Square brackets hold non-standard residues; d marks the D form. Ends that are not written are not given here. I, II: the chains in the order shown. βAla = NCCC(=O)O

Key:
[1] = system: U2OS (osteosarcoma); test: BrDU proliferation assay, U2OS cells; format: cell-based; conditions: 24 hrs, dose-dependent
Description: (§1) Four tumor cell lines U2OS (osteosarcoma), C33A (cervical carcinoma), HeLa (cervical carcinoma) and E2F4/ras (derived from primary rat embryo fibroblasts) were treated with the branched peptide MAP-4-SEQ ID NO:2-TAT or mutant control peptide MAP-4-SEQ ID NO:39-TAT for 24 hrs. Cell proliferation was measured using the BrDU proliferation assay from Boehringer Mannheim (Cat No. 1 647 229).

[2] = system: HL60 cells; test: Nuclease-laddering assay (DNA laddering) in HL60 cells; format: cell-based
Description: Treated cells were collected, washed with PBS, resuspended in lysis buffer (50 mM Tris pH 7.9, 100 mM EDTA, pH 8, 100 mM NaCl, 1% SDS) and 500 μg/ml proteinase K and incubated at 55° C. for 18 h. Cells were then incubated with […] for 1 hour at 37° C., genomic DNA was purified and examined by agarose gel electrophoresis.
(§2) Effects became visible after 5-24 hours defending on the concentration of the peptide.

[3] = system: HeLa cells; test: BrdU incorporation cell proliferation assay, HeLa cells; format: cell-based; conditions: 24 hrs, dose-dependent
Description: (§3) HeLa cells were grown in Dulbecco's Modified Eagle's Medium (DMEM) supplemented with fetal calf serum (FCS) and HL60 cells in RPMI 1640 supplemented with 10% FCS. Cells were treated with peptides in culture medium and incubated overnight before harvesting.
The peptides were tested in further experiments for their effect on cell cycle progression and cell viability. For this purpose, the peptides were conjugated at their C-terminus to a cell penetrating HIV-Tat derived peptide (aa 48-60) (Fawell et al. (1994) Proc. Natl. Acad. Sci. USA 91, 664-668).
(§4) HeLa, 3T3, W138 cells were treated with varying concentration of MAP-4-SEQ ID NO:2-TAT and a control peptide MAP-4-SEQ ID NO:39-TAT wherein SEQ ID NO:39 is SEQ ID NO:2 but containing 2 alanine substitutions at positions 1 and 4, i.e. AVRAHF (SEQ ID NO:39) DNA replication was analysed by BrdU incorporation after 24 hours.
as §1

[4] = system: CycA promoter; test: Transcription from the CycA promoter, HeLa cells transiently transfected with CycA-Luciferase construct; format: cell-based
From the text: (§5) This finding is in agreement with the anti-repressor function of E2F in the CycA promoter, (Liu et al, Oncogene (1998), 16, 2957-2963).

[5] = system: SV-40 promoter; test: Transcription from the SV-40 promoter (control), HeLa cells; format: cell-based
From the text: as §5

[6] = system: C33A (cervical carcinoma); test: BrDU proliferation assay, C33A cells; format: cell-based; conditions: 24 hrs, dose-dependent
Description: as §1

[7] = system: E2F4/ras (derived from primary rat embryo fibroblasts); test: BrDU proliferation assay, E2F4/ras cells; format: cell-based; conditions: 24 hrs, dose-dependent
Description: as §1

[8] = system: HL60 cells; test: Growth of HL60 cells treated with peptide; format: cell-based
Description: as §3, §4, §2

[9] = system: HL60 cells; test: Apoptosis, staining of HL60 cells with Heochst 33342 propidium iodide; format: cell-based
Description: as §2

[10] = biological target: T1, recombinant E2F1 N1-His (64-301) with DP1 N2-GST (84-249) (human, UniProt Q01094 64-301; Q14186 84-249); test: deletion analysis; inhibition of E2F DNA binding (band shift)
T1 construct: range 64-301;range 84-249; Both proteins were incubated together at 10 ug/ml in the band shift assay with a 32P-labelled B-myb E2F-site probe; also called recombinant E2F1 and DP1; not shown: His tag from vector pET28b; GST fusion partner

[11] = biological target: T1, recombinant E2F1 N1-His (64-301) with …; test: band shift, recombinant E2F1 and DP1, displacement of 32P B-myb E2F-site probe
Description: Samples were run on 4% non denaturing polyacrylamide gel in 0.5% TBE at 4° C. Gels were exposed to X-ray films. […] The samples were then incubated for 10 minutes at 30° C. and cooled on ice. ^32P-labelled probe was added, the reaction mixtures were incubated for another 10 minutes at 30° C. and then cooled on ice.
The inhibitory potential of the peptides on E2F function was analysed in band shift assays with recombinant E2F1 and DP1.

T1 sequence (Q01094 64-301, chain 1 of 2): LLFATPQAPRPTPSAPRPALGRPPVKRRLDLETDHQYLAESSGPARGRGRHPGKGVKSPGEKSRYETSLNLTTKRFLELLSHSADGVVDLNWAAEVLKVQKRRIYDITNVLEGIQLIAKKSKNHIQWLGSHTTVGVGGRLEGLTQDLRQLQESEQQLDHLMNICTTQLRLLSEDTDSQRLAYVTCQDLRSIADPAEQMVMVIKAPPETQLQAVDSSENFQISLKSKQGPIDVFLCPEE
T1 sequence (Q14186 84-249, chain 2 of 2): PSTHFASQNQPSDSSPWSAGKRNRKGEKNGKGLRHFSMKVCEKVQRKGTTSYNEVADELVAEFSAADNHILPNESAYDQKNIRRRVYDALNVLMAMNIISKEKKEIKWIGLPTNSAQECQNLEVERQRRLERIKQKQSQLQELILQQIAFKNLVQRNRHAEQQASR

In the case of “I: WVRWHFGRKKRRQRRRPPQKK[βAla] / II: WVRWHFGRKKRRQRRRPPQK / III: WVRWHFGRKKRRQRRRPPQ / IV: WVRWHFGRKKRRQRRRPPQ (amide I:20-IV:C, I:21-II:C, II:20-III:C) [MAP-4-SEQ ID NO:2-TAT]”, the inhibition of proliferation [1] is reported as “inhibited proliferation”, the DNA laddering [2] is reported as “internucleosomal DNA cleavage” and the inhibition of proliferation [3] is reported as “inhibited proliferation”. The “effect on transcription from CycA-Luciferase construct” value [4] was “Inhibition of transcription”, the “effect on the SV-40 promoter” value [5] was “No effect” and the inhibition of proliferation [6] was “inhibited proliferation”. The inhibition of proliferation [7] was “inhibited proliferation”, the “inhibition of cell proliferation / cell growth” value ([8]; HL60 cells, concentrations between 1-5 μM) was “Inhibition of cell proliferation” and the “time after which effects became visible” value ([8]; depending on the concentration of the peptide) was 5 to 24 h. For the same molecule, the “hallmarks of apoptosis after staining” value [9] was “chromatin condensation and nuclear fragmentation”.

B1: SEQ5-7 (3-13) (RILTFRSGSWY) (peptide)
peptide: RILTFRSGSWY
notes: also called core-region consisting of amino acids 3-13
For B1, the “inhibitory activity relative to SEQ ID NO:5” value [10] was about 50%.

B2: peptide SEQ ID NO:4 (IWLSGLSRGVWVSFP) (peptide)
peptide: IWLSGLSRGVWVSFP
notes: Synthetic peptide in the band shift assays
B2: binds [11].
